Test results taken from patent US12351653B1, “Pharmaceutical compositions comprising novel cyclic peptides” (LISATA THERAPEUTICS, INC., priority 2019, dated 2025).

Columns and labels:
CA19-9 = assay: Phase I trial (CEND-001): tumor biomarker CA19-9; assay type: in vivo, human; details: with nab-paclitaxel and gemcitabine
Experimental: (§1) Patients will first receive the intravenous infusion of nabpaclitaxel (125 mg/m^2 over 30 minutes (±3 minutes)).
(§2) Patients (n=31) who had measurable metastatic pancreatic cancer, no prior treatments for metastatic disease and an ECOG PS of 0 to 1 were included. Primary endpoints are safety and optimal biologic dose, secondary and exploratory endpoints included response rates, pharmacokinetics and biomarkers.
Of these, 23 patients had at least one on-treatment CA19-9 measurement.

[1] = system: metastatic pancreatic cancer; assay: Phase I trial (CEND-001) of CEND-1 with gemcitabine and nab-paclitaxel: response and survival; assay type: in vivo, human
Experimental: as §1, §2

[2] = patients with elevated baseline CA19-9 and a postbaseline assessment (23)
[3] = with nab-paclitaxel and gemcitabine
[4] = with nab-paclitaxel and gemcitabine, RECIST 1.1, 29 evaluable patients

Q: What does the source list for “Ac-Cys-Arg-Gly-Asp-Lys-Gly-Pro-Asp-Cys-NH2 (Cys & Cys Bridge) [CEND-1]”?
A: Patients with a ≥50% reduction in CA19-9 from Baseline (CA19-9; Cycle 5 Day 1, 20/22 patients): 90.9%; Patients with CA19-9 decrease from baseline of at least 20% (CA19-9; [2]): 96%; Patients with CA19-9 decrease of at least 90% and/or CA19-9 levels normalized (CA19-9; [2]): 74%; Complete response ([1]; with nab-paclitaxel 125 mg/m^2 and gemcitabine 1000 mg/m^2, investigator assessed RECIST 1.1, 29 evaluable patients): 3.4%; Median time to progression [1, 3]: approximately 9.7 months; Response rates relative to the benchmark trials [1, 3]: > 2 times; Patients with progression ([1]; with nab-paclitaxel and gemcitabine, 16/29 patients): 55.2%; Confirmed objective responses (OR) ([1]; with nab-paclitaxel and gemcitabine, 17/29 patients (95% CI=38.9, 76.5)): 58.6%; Partial response [1, 4]: 55%; Progressive disease [1, 4]: 6.9%; Stable disease [1, 4]: 34%; Overall response rate (ORR) ([1]; with nab-paclitaxel and gemcitabine, all evaluable patients (N=29)): 59%; Median (IQR) PFS ([1]; with nab-paclitaxel and gemcitabine, at study closure): 9.7 months; Overall disease control rate for 16 weeks ([1]; with nab-paclitaxel and gemcitabine, evaluable patients (N=29)): 79%
